Results as given in patent US9255295B2, “Method for evaluating the sensitizing potential of a test compound” (IMMUNOSEARCH, priority 2010, dated 2016).
Like-named read-outs stand apart in the source and are kept apart here.

System: ARE gene family (AKR1B10, AKR1C1, AKR1C2, CYP1B1, FTH1P, FTL, G6PD, GCLM, NQO2, SLC7A11, TXNRD1, UGT1A1, UGT1A9, YWHAZ, CD36, CYP1A1, GCLC, HMOX1, NQO1, PSME2 …)
Conditions: for AHR expression / AKR1B10 expression / AKR1C1 expression / AKR1C2 expression / CYP1A1 expression / CYP1B1 expression / FTH1P expression / FTL expression / GCLC expression / GCLM expression / HMOX1 expression / NQO1 expression / NQO2 expression / SLC7A11 expression / TXNRD1 expression / UGT1A1 expression / UGT1A9 expression: compared to the control

CC=Cc1ccc(O)c(OC)c1 [Isoeugenol]
AHR NUMBER OF GENES grade (0.1%): 0 (if this expression is lower, the grade is 0) | AKR1B10 NUMBER OF GENES grade (0.1%): 0 (if this expression is lower, the grade is 0) | AKR1C1 NUMBER OF GENES grade (0.1%): 0 (if this expression is lower, the grade is 0) | AKR1C2 NUMBER OF GENES grade (0.1%): 0 (if this expression is lower, the grade is 0) | ARE >1.3 (number of genes) (0.1%): 2 | CD36 expression compared to control (0.1%): 0.9 | CD36 grade (NUMBER OF GENES) (0.1%): 0 (if this expression is lower, the grade is 0) | CYP1A1 NUMBER OF GENES grade (0.1%): 1 (If the expression is greater than 1.3 compared to the control, a grade of 11s given) | CYP1B1 NUMBER OF GENES grade (0.1%): 1 (If the expression is greater than 1.3 compared to the control, a grade of 11s given) | FTH1P NUMBER OF GENES grade (0.1%): 0 (if this expression is lower, the grade is 0) | FTL NUMBER OF GENES grade (0.1%): 0 (if this expression is lower, the grade is 0) | GCLC NUMBER OF GENES grade (0.1%): 0 (if this expression is lower, the grade is 0) | GCLM NUMBER OF GENES grade (0.1%): 0 (if this expression is lower, the grade is 0) | HMOX1 NUMBER OF GENES grade (0.1%): 0 (if this expression is lower, the grade is 0) | NQO1 NUMBER OF GENES grade (0.1%): 0 (if this expression is lower, the grade is 0) | NQO2 NUMBER OF GENES grade (0.1%): 0 (if this expression is lower, the grade is 0) | S100A8 expression compared to control (0.1%): 1.1 | S100A8 grade (NUMBER OF GENES) (0.1%): 0 (if this expression is lower, the grade is 0) | SLC7A11 NUMBER OF GENES grade (0.1%): 0 (if this expression is lower, the grade is 0) | TOTAL ARE (number of genes) (0.1%): 2 | TXNRD1 NUMBER OF GENES grade (0.1%): 0 (if this expression is lower, the grade is 0) | UGT1A1 NUMBER OF GENES grade (0.1%): 0 (if this expression is lower, the grade is 0) | UGT1A9 NUMBER OF GENES grade (0.1%): 0 (if this expression is lower, the grade is 0) | AHR expression (0.1%): 0.7 | AKR1B10 expression (0.1%): 0.9 | AKR1C1 expression (0.1%): 1.1 | AKR1C2 expression (0.1%): 1.0 | CYP1A1 expression (0.1%): 11.9 | CYP1B1 expression (0.1%): 12.2 | FTH1P expression (0.1%): 0.8 | FTL expression (0.1%): 1.0 | GCLC expression (0.1%): 0.8 | GCLM expression (0.1%): 1.1 | HMOX1 expression (0.1%): 0.9 | NQO1 expression (0.1%): 1.1 | NQO2 expression (0.1%): 1.0 | SLC7A11 expression (0.1%): 1.1 | TXNRD1 expression (0.1%): 1.1 | UGT1A1 expression (0.1%): 1.0 | UGT1A9 expression (0.1%): 0.8 | AHR NUMBER OF GENES grade (1%): 0 (if this expression is lower, the grade is 0) | AKR1B10 NUMBER OF GENES grade (1%): 0 (if this expression is lower, the grade is 0) | AKR1C1 NUMBER OF GENES grade (1%): 0 (if this expression is lower, the grade is 0) | AKR1C2 NUMBER OF GENES grade (1%): 0 (if this expression is lower, the grade is 0) | ARE >1.3 (number of genes) (1%): 3 | CD36 expression compared to control (1%): 1.3 | CD36 grade (NUMBER OF GENES) (1%): 1 (If the expression is greater than 1.3 compared to the control, a grade of 11s given) | CYP1A1 NUMBER OF GENES grade (1%): 1 (If the expression is greater than 1.3 compared to the control, a grade of 11s given) | CYP1B1 NUMBER OF GENES grade (1%): 1 (If the expression is greater than 1.3 compared to the control, a grade of 11s given) | FTH1P NUMBER OF GENES grade (1%): 0 (if this expression is lower, the grade is 0) | FTL NUMBER OF GENES grade (1%): 0 (if this expression is lower, the grade is 0) | GCLC NUMBER OF GENES grade (1%): 0 (if this expression is lower, the grade is 0) | GCLM NUMBER OF GENES grade (1%): 0 (if this expression is lower, the grade is 0) | HMOX1 NUMBER OF GENES grade (1%): 0 (if this expression is lower, the grade is 0) | NQO1 NUMBER OF GENES grade (1%): 0 (if this expression is lower, the grade is 0) | NQO2 NUMBER OF GENES grade (1%): 0 (if this expression is lower, the grade is 0) | S100A8 expression compared to control (1%): 1.0 | S100A8 grade (NUMBER OF GENES) (1%): 0 (if this expression is lower, the grade is 0) | SLC7A11 NUMBER OF GENES grade (1%): 0 (if this expression is lower, the grade is 0) | TOTAL ARE (number of genes) (1%): 3 | TXNRD1 NUMBER OF GENES grade (1%): 1 (If the expression is greater than 1.3 compared to the control, a grade of 11s given) | UGT1A1 NUMBER OF GENES grade (1%): 0 (if this expression is lower, the grade is 0) | UGT1A9 NUMBER OF GENES grade (1%): 0 (if this expression is lower, the grade is 0) | AHR expression (1%): 0.9 | AKR1B10 expression (1%): 0.7 | AKR1C1 expression (1%): 1.2 | AKR1C2 expression (1%): 0.9 | CYP1A1 expression (1%): 219.2 | CYP1B1 expression (1%): 25.3 | FTH1P expression (1%): 0.9 | FTL expression (1%): 1.0 | GCLC expression (1%): 0.9 | GCLM expression (1%): 1.2 | HMOX1 expression (1%): 1.2 | NQO1 expression (1%): 1.0 | NQO2 expression (1%): 1.0 | SLC7A11 expression (1%): 1.1 | TXNRD1 expression (1%): 1.3 | UGT1A1 expression (1%): 1.1 | UGT1A9 expression (1%): 1.0 | AHR NUMBER OF GENES grade (10%): 0 (if this expression is lower, the grade is 0) | AKR1B10 NUMBER OF GENES grade (10%): 0 (if this expression is lower, the grade is 0)
